According to patent US11066414B2, “Cot modulators and methods of use thereof” (Gilead Sciences, Inc., priority 2015, dated 2021):
Where two headings read alike, the source gives them in different places.

Columns and labels:
TNFα = assay: Cot Monocyte TNFα Cell Based Assay
Human Cot = Human Cot (Homo sapiens (Human), UniProt P41279); assay: High Throughput Cot Biochemical Assay
[1] = Homo sapiens, Monocyte, read-out: EC50 TNF, LPS-stimulated human monocytes, TNFα
[2] = IC50 HTRF, Cot HTRF (TR-FRET) biochemical assay
[3] = Homo sapiens, Monocyte, read-out: EC50 TNF, LPS-stimulated human monocytes, TNFα TR-FRET
[4] = IC50 HTRF, Cot HTRF (TR-FRET KinEASE) biochemical assay, 400 μM ATP

Human Cot, sequence (P41279 30-397): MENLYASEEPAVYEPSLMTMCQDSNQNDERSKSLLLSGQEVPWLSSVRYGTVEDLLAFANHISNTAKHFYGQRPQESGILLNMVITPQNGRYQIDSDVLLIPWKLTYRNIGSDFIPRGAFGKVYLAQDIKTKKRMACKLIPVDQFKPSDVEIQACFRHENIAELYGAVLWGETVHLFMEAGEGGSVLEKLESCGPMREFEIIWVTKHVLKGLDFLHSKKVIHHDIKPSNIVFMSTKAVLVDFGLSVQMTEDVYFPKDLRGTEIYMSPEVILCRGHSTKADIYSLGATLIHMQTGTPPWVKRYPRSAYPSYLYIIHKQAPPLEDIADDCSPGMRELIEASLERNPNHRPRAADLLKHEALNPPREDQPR

Structure (SMILES) | EC50 (TNFα; [1]) [nM] | IC50 (Human Cot; [2]) [nM] | other results
CCc1nc(F)ccc1[C@H](Nc1cc(C#N)c2ncc(C#N)c(NCC(C)(C)C)c2c1)c1cn(C2(C(F)(F)F)CC2)nn1 [Example 598, (S)-6-(((2-ethyl-6-fluoropyridin-3-yl)(1-(1-(trifluoromethyl)cyclopropyl)-1H-1,2,3-triazol-4-yl)methyl)amino)-4-(neopentylamino)-quinoline-3,8-dicarbonitrile] | 198 | 5 | 
Cc1nc(F)ccc1[C@H](Nc1cc(Cl)c2ncc(C#N)c(NCC(C)(C)C)c2c1)c1nnn(C2(C(F)F)CC2)c1F [Example 960, (S)-8-chloro-6-(((1-(1-(difluoromethyl)cyclopropyl)-5-fluoro-1H-1,2,3-triazol-4-yl)(6-fluoro-2-methylpyridin-3-yl)methyl)amino)-4-(neopentylamino)quinoline-3-carbonitrile] |  |  | EC50 (TNFα; [3]): 55 nM; IC50 (Human Cot; [4]): 7 nM
CC(C)(C)CNc1c(C#N)cnc2c(C#N)cc(N[C@H](c3cn(C4(C(F)(F)F)CC4)nn3)c3ccc(C#N)c4cnccc34)cc12 [Example 670, (S)-6-(((8-cyanoisoquinolin-5-yl)(1-(1-(trifluoromethyl)cyclopropyl)-1H-1,2,3-triazol-4-yl)methyl)amino)-4-(neopentylamino)quinoline-3,8-dicarbonitrile] | 102 | 5 | 
[2H][C@](Nc1cc(Cl)c2ncc(C#N)c(N[C@H](CC)c3ccccc3)c2c1)(c1ccc(F)nc1)c1cn(C(C)(C)C)nn1 [Example 118, 6-(((S)-(1-(tert-butyl)-1H-1,2,3-triazol-4-yl)(6-fluoropyridin-3-yl)methyl-d)amino)-8-chloro-4-(((R)-1-phenylpropyl)amino)quinoline-3-carbonitrile] | 150 | 6 | 
CC[C@@H](Nc1c(C#N)cnc2c(F)cc(N[C@@H](c3ccc(F)nc3)c3cn(C4CC4)nn3)cc12)c1ccccc1 [Example 120, 6-(((S)-(-cyclopropyl-1H-1,2,3-triazol-4-yl)(6-fluoropyridin-3-yl)methyl-d)amino)-8-fluoro-4-(((R)-1-phenylpropyl)amino)quinolme-3-carbonitrile] |  |  | EC50 (TNFα; read-out: EC50 TNF, LPS-stimulated human monocytes, TNFα): 137 nM; IC50 (Human Cot; read-out: IC50 HTRF, Cot HTRF (TR-FRET) biochemical assay): 5 nM
Cc1nc(F)ccc1[C@H](Nc1cc(Cl)c2ncc(C#N)c(NCC(C)(C)C)c2c1)c1cn(C2(C)CC2)nn1 [Example 480, (S)-8-chloro-6-(((6-fluoro-2-methylpyridin-3-yl)(1-(1-methylcyclopropyl)-1H-1,2,3-triazol-4-yl)methyl)amino)-4-(neopentylamino)-quinoline-3-carbonitrile] | 60 | 2 | 
Cc1nc(F)ccc1[C@H](Nc1cc(Cl)c2ncc(C#N)c(NCC(C)(C)C)c2c1)c1nnn(C2CC2)c1C1CC1 [Example 946, (S)-8-chloro-6-(((1,5-dicyclopropyl-1H-1,2,3-triazol-4-yl)(6-fluoro-2-methylpyridin-3-yl)methyl)amino)-4-(neopentylamino)quinoline-3-carbonitrile] |  |  | EC50 (TNFα; [3]): 153 nM; IC50 (Human Cot; [4]): 5 nM
CCN1Cc2ccc([C@H](Nc3cc(Cl)c4ncc(C#N)c(Nc5ccc(F)c(Cl)c5)c4c3)c3cn(C4CCN(C(C)(C)C)CC4)nn3)cc2C1 [Example 58, (S)-6-(((1-(1-(tert-butyl)piperidin-4-yl)-1H-1,2,3-triazol-4-yl)(2-ethylisoindolin-5-yl)methyl)amino)-8-chloro-4-((3-chloro-4-fluorophenyl)amino)quinoline-3-carbonitrile] | 2980 | 72 | 
Cc1nc(F)ccc1[C@H](Nc1cc(Cl)c2ncc(C#N)c(NCC(C)(C)C)c2c1)c1nnn(C2CC2)c1F [Example 663, (S)-8-chloro-6-(((1-cyclopropyl-5-fluoro-1H-1,2,3-triazol-4-yl)(6-fluoro-2-methylpyridin-3-yl)methyl)amino)-4-(neopentylamino)quinoline-3-carbonitrile] | 62 | 3 | 
